Source: publication PMC2962915, “The –SH Protection Method for Determining Accurate Kd Values for Enzyme-Coenzyme Complexes of NAD^+-Dependent Glutamate Dehydrogenase and Engineered Mutants: Evidence for Nonproductive NADPH Complexes” (Enzyme Research, 2010)
Read-outs that look alike come from different tables or passages of the source. Each block holds one compound with its values, some of them ahead of it.

Molecular target: T1, clostridial glutamate dehydrogenase (GDH) ([Clostridium] symbiosum, UniProt P24295)
T1 construct: no tag mentioned
T1 sequence (P24295 2-450): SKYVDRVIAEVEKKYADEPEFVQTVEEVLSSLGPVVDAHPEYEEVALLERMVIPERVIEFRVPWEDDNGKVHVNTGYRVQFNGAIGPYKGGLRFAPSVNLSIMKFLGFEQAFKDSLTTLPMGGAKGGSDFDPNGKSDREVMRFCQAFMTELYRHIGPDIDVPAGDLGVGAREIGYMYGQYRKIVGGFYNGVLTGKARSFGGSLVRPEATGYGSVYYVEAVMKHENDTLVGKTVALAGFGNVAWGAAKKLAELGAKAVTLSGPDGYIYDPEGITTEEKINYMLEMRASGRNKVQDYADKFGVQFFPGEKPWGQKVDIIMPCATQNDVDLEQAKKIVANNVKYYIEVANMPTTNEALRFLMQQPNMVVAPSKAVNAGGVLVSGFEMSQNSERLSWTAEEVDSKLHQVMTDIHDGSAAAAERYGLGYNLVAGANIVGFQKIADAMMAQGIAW
Experiment: protection against DTNB inactivation
Assay type: biochemical
Details: 0.1 M potassium phosphate, pH 7.0, 25°C, 200 μM DTNB, competitive with DTNB at coenzyme site, Kd corrected for DTNB
From the text: protection against DTNB inactivation on clostridial glutamate dehydrogenase (GDH)

Kd (read-out: K dNADH): 24 ± 1 µM
SMILES: NC(=O)C1=CN([C@@H]2O[C@H](COP(=O)(O)OP(=O)(O)OC[C@H]3O[C@@H](n4cnc5c(N)ncnc54)[C@H](O)[C@@H]3O)[C@@H](O)[C@H]2O)C=CC1 [NADH]

Kd (read-out: K dNADPH): 23 ± 1 µM
SMILES: NC(=O)C1=CN([C@@H]2O[C@H](COP(=O)(O)OP(=O)(O)OC[C@H]3O[C@@H](n4cnc5c(N)ncnc54)[C@H](OP(=O)(O)O)[C@@H]3O)[C@@H](O)[C@H]2O)C=CC1 [NADPH]

Kd (read-out: K dNAD+): 335 ± 17 µM
SMILES: NC(=O)c1ccc[n+]([C@@H]2O[C@H](COP(=O)(O)OP(=O)(O)OC[C@H]3O[C@@H](n4cnc5c(N)ncnc54)[C@H](O)[C@@H]3O)[C@@H](O)[C@H]2O)c1 [NAD^+]
